# Activity calls are given as the source filed them. Rule as the data show it, for most assays here: actives have a measured Kd and inactives only a lower limit.
# Target: T1, TGF-beta receptor type-1 (Homo sapiens, UniProt P36897)
# T1 sequence (P36897 whole entry): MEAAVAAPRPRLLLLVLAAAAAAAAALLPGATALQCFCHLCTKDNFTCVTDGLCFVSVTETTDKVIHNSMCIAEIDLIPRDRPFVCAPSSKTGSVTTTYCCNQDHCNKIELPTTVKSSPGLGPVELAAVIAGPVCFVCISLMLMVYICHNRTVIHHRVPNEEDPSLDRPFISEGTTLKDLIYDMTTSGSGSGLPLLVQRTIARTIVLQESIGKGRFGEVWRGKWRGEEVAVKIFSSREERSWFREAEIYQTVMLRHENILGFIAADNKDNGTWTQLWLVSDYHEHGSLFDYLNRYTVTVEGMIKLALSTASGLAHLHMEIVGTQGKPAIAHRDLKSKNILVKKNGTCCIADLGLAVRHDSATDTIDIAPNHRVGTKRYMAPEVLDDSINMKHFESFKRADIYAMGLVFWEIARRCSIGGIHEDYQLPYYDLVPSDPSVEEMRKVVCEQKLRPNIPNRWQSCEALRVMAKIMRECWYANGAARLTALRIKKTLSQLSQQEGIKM
# Conditions: not given
# Also: in the data inactive means no Kd found up to 30 µM.
row,SMILES,Kd
1,N[C@@H]1CCCN(c2c(/C=C3\SC(=O)NC3=O)cccc2-c2ccccc2)C1,> 30 µM (inactive)
2,Cc1ccc(S(=O)(=O)Nc2nc3ccccc3nc2Nc2ccc3nsnc3c2)cc1,> 30 µM (inactive)
3,CN1CC[C@@H](c2c(O)cc(O)c3c(=O)cc(-c4ccccc4Cl)oc23)[C@@H]1CO,> 30 µM (inactive)

# Target: Rho-associated protein kinase 2 (Homo sapiens, UniProt O75116)
# Sequence (O75116 whole entry): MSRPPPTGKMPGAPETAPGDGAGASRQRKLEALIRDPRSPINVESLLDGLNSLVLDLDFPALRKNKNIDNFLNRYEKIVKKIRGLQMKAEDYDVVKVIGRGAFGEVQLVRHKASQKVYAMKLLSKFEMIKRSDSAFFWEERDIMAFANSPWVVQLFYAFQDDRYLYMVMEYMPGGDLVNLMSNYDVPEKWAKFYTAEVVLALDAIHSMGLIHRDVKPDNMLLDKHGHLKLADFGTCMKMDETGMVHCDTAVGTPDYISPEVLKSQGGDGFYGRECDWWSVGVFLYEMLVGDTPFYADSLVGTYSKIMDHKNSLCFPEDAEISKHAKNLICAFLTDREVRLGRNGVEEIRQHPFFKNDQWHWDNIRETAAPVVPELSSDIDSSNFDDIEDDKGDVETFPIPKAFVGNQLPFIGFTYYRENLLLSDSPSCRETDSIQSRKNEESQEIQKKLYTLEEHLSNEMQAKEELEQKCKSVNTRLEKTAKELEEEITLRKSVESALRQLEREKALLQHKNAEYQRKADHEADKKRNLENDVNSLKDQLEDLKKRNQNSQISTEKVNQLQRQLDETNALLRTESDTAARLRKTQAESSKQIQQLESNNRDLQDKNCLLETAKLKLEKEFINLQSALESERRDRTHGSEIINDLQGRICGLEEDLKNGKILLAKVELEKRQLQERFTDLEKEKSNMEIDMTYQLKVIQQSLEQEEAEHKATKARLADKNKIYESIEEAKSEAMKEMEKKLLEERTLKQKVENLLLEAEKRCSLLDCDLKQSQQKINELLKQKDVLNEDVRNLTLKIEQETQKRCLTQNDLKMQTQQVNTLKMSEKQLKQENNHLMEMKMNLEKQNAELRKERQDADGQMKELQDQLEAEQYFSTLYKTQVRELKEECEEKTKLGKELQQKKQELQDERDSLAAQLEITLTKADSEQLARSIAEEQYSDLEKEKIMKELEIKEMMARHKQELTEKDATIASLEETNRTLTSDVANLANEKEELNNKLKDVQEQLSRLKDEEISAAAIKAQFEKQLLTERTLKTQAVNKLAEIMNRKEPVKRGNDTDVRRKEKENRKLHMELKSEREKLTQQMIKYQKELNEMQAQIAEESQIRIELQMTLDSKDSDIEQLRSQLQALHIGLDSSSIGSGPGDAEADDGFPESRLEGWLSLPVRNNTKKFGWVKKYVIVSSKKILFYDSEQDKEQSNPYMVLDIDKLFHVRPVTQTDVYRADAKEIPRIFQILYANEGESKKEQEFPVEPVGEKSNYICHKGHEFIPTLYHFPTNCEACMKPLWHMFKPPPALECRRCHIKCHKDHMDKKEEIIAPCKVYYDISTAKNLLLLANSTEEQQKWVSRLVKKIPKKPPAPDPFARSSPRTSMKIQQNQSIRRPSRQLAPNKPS
# Conditions: not given
row,SMILES,Kd
1,N[C@@H]1CCCN(c2c(/C=C3\SC(=O)NC3=O)cccc2-c2ccccc2)C1,> 30 µM (inactive)
2,Cc1ccc(S(=O)(=O)Nc2nc3ccccc3nc2Nc2ccc3nsnc3c2)cc1,> 30 µM (inactive)
3,CN1CC[C@@H](c2c(O)cc(O)c3c(=O)cc(-c4ccccc4Cl)oc23)[C@@H]1CO,> 30 µM (inactive)

# Target: Cyclin-dependent kinase 6 (Homo sapiens, UniProt Q00534)
# Sequence (Q00534 whole entry): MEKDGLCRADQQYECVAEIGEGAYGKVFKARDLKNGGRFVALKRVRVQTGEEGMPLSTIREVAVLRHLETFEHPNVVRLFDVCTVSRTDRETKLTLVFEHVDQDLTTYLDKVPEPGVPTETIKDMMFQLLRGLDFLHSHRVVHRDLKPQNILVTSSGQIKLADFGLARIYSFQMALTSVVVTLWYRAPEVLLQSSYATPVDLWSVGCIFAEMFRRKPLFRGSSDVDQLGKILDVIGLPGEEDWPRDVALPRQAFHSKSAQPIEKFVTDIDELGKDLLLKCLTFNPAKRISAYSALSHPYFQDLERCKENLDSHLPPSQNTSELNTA
# Conditions: not given
row,SMILES,Kd
1,Cc1ccc(S(=O)(=O)Nc2nc3ccccc3nc2Nc2ccc3nsnc3c2)cc1,> 30 µM (inactive)
2,CN1CC[C@@H](c2c(O)cc(O)c3c(=O)cc(-c4ccccc4Cl)oc23)[C@@H]1CO,> 30 µM (inactive)

# Target: Dual specificity tyrosine-phosphorylation-regulated kinase 1A (Homo sapiens, UniProt Q13627)
# Conditions: not given
row,SMILES,Kd
1,N[C@@H]1CCCN(c2c(/C=C3\SC(=O)NC3=O)cccc2-c2ccccc2)C1,> 30 µM (inactive)
2,Cc1ccc(S(=O)(=O)Nc2nc3ccccc3nc2Nc2ccc3nsnc3c2)cc1,> 30 µM (inactive)
3,CN1CC[C@@H](c2c(O)cc(O)c3c(=O)cc(-c4ccccc4Cl)oc23)[C@@H]1CO,> 30 µM (inactive)

# Target: Glycogen synthase kinase-3 beta (Homo sapiens, UniProt P49841)
# Sequence (P49841 whole entry): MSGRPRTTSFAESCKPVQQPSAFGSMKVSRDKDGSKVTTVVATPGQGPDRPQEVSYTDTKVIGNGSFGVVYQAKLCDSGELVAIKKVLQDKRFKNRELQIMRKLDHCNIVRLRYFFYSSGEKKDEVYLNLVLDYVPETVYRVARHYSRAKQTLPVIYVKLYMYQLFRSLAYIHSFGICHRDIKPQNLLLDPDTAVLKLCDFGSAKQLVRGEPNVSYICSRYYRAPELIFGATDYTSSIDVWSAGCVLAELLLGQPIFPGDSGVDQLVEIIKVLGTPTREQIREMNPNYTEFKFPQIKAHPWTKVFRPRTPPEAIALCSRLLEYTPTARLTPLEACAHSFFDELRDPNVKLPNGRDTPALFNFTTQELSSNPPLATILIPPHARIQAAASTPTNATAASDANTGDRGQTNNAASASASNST
# Conditions: not given
row,SMILES,Kd
1,N[C@@H]1CCCN(c2c(/C=C3\SC(=O)NC3=O)cccc2-c2ccccc2)C1,> 30 µM (inactive)
2,Cc1ccc(S(=O)(=O)Nc2nc3ccccc3nc2Nc2ccc3nsnc3c2)cc1,> 30 µM (inactive)
3,CN1CC[C@@H](c2c(O)cc(O)c3c(=O)cc(-c4ccccc4Cl)oc23)[C@@H]1CO,2.72 µM (active)

# Target: T2, RNA cytidine acetyltransferase (Homo sapiens, UniProt Q9H0A0)
# T2 sequence (Q9H0A0 whole entry): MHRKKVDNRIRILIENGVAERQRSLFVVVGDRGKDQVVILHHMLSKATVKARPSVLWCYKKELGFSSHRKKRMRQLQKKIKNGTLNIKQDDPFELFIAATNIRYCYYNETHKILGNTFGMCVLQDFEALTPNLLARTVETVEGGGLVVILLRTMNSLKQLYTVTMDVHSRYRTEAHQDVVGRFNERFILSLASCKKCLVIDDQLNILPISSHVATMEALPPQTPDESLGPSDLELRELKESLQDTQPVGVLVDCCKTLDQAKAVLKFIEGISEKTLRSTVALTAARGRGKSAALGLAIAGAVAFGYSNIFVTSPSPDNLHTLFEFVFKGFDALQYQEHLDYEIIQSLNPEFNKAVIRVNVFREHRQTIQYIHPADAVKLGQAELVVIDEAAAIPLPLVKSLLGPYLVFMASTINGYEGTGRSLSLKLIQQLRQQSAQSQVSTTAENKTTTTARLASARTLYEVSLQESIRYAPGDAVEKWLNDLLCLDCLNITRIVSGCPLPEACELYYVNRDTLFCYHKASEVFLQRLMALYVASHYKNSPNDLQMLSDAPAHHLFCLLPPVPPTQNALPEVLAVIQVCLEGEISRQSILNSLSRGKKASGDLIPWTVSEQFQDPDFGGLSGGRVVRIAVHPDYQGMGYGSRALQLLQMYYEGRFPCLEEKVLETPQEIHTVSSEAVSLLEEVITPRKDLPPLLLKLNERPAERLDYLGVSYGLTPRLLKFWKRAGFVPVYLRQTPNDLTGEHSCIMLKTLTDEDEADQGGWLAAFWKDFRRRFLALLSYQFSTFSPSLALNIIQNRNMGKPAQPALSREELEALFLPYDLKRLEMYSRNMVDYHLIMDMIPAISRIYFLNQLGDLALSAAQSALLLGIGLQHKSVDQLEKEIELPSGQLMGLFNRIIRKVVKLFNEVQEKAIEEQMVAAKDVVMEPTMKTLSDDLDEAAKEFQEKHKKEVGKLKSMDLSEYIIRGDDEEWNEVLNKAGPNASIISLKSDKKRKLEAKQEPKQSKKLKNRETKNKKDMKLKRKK
# Conditions: not given
row,SMILES,Kd
1,N[C@@H]1CCCN(c2c(/C=C3\SC(=O)NC3=O)cccc2-c2ccccc2)C1,> 30 µM (inactive)
2,Cc1ccc(S(=O)(=O)Nc2nc3ccccc3nc2Nc2ccc3nsnc3c2)cc1,> 30 µM (inactive)
3,CN1CC[C@@H](c2c(O)cc(O)c3c(=O)cc(-c4ccccc4Cl)oc23)[C@@H]1CO,> 30 µM (inactive)

# Target: Ribosomal protein S6 kinase beta-1 (Homo sapiens, UniProt P23443)
# Sequence (P23443 whole entry): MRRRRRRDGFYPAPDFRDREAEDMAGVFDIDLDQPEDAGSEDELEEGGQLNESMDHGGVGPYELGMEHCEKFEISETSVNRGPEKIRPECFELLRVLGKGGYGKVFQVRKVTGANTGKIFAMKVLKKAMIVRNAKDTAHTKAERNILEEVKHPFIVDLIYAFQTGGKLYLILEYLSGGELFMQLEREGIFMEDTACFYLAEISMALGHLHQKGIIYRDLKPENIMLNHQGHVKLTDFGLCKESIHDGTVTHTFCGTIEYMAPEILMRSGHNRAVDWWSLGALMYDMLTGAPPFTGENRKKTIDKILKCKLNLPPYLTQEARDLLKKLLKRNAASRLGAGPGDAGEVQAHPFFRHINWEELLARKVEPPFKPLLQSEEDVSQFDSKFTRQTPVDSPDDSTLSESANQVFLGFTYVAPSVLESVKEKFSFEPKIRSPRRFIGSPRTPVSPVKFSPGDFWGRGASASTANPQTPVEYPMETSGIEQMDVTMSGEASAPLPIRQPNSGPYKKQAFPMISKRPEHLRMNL
# Conditions: not given
row,SMILES,Kd
1,N[C@@H]1CCCN(c2c(/C=C3\SC(=O)NC3=O)cccc2-c2ccccc2)C1,> 30 µM (inactive)
2,Cc1ccc(S(=O)(=O)Nc2nc3ccccc3nc2Nc2ccc3nsnc3c2)cc1,> 30 µM (inactive)
3,CN1CC[C@@H](c2c(O)cc(O)c3c(=O)cc(-c4ccccc4Cl)oc23)[C@@H]1CO,> 30 µM (inactive)

# Target: T3, Uncharacterized protein FLJ45252 (Homo sapiens, UniProt Q6ZSR9)
# T3 sequence (Q6ZSR9 whole entry): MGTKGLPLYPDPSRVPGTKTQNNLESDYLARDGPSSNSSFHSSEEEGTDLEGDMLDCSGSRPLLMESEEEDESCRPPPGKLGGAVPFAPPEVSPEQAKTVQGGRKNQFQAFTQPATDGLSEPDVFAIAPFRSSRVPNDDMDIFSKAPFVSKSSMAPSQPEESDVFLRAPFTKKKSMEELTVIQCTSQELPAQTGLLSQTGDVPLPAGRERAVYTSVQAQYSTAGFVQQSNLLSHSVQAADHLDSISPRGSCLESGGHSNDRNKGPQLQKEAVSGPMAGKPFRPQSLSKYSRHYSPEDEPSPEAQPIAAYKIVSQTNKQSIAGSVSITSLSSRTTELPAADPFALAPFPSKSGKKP
# Conditions: read-out: Kd apparent; k-562, colo 205, sk-n-be(2) and mv-4-11
row,SMILES,Kd
1,N[C@@H]1CCCN(c2c(/C=C3\SC(=O)NC3=O)cccc2-c2ccccc2)C1,> 30 µM (inactive)
2,Cc1ccc(S(=O)(=O)Nc2nc3ccccc3nc2Nc2ccc3nsnc3c2)cc1,> 30 µM (inactive)
3,CN1CC[C@@H](c2c(O)cc(O)c3c(=O)cc(-c4ccccc4Cl)oc23)[C@@H]1CO,> 30 µM (inactive)

# Target: T4, Signal recognition particle receptor subunit alpha (Homo sapiens, UniProt P08240)
# T4 sequence (P08240 whole entry): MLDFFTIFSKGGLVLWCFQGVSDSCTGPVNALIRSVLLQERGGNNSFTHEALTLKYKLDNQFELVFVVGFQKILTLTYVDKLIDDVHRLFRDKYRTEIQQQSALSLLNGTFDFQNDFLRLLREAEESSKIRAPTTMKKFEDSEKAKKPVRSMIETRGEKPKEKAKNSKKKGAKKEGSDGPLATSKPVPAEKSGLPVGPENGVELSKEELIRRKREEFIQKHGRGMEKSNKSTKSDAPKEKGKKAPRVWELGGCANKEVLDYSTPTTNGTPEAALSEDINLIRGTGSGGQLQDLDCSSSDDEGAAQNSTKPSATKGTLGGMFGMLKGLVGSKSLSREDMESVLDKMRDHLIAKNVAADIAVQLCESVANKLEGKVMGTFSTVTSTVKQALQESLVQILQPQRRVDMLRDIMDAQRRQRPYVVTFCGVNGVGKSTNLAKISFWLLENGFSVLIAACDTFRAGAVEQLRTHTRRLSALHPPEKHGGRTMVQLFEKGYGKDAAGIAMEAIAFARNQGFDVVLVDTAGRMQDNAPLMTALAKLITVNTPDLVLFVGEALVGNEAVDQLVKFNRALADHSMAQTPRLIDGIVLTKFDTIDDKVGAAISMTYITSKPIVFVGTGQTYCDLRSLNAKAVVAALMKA
# Conditions: not given
row,SMILES,Kd
1,N[C@@H]1CCCN(c2c(/C=C3\SC(=O)NC3=O)cccc2-c2ccccc2)C1,> 30 µM (inactive)
2,Cc1ccc(S(=O)(=O)Nc2nc3ccccc3nc2Nc2ccc3nsnc3c2)cc1,> 30 µM (inactive)
3,CN1CC[C@@H](c2c(O)cc(O)c3c(=O)cc(-c4ccccc4Cl)oc23)[C@@H]1CO,> 30 µM (inactive)

# Target: Platelet-derived growth factor receptor beta (Homo sapiens, UniProt P09619)
# Sequence (P09619 whole entry): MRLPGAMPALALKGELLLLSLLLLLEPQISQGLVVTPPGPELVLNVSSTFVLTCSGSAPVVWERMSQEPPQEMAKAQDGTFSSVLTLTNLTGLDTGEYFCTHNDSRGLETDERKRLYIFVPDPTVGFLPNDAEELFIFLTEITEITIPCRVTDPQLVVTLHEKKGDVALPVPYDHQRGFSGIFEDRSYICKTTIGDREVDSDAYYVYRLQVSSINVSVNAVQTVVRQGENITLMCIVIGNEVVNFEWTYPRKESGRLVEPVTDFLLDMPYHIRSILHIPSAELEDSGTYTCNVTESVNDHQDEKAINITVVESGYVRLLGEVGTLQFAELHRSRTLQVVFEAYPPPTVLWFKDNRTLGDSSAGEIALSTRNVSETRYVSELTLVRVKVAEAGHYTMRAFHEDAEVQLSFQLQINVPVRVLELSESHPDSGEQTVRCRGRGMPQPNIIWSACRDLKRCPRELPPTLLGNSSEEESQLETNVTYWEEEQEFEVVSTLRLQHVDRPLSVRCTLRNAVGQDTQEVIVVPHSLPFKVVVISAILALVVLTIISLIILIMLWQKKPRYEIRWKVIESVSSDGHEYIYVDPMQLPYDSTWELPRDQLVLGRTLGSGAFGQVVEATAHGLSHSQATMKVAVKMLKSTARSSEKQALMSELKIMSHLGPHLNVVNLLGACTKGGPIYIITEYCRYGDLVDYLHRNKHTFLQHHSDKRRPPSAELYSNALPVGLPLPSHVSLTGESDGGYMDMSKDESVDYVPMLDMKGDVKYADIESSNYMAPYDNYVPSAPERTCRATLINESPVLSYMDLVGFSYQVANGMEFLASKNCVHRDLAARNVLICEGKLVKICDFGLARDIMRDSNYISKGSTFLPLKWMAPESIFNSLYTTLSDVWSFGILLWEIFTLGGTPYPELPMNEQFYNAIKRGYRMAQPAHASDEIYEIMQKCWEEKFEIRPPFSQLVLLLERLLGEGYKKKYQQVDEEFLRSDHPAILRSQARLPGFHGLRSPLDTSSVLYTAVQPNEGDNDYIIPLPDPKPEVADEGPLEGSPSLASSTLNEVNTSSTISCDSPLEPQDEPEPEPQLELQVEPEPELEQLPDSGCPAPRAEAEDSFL
# Conditions: not given
row,SMILES,Kd
1,N[C@@H]1CCCN(c2c(/C=C3\SC(=O)NC3=O)cccc2-c2ccccc2)C1,> 30 µM (inactive)
2,Cc1ccc(S(=O)(=O)Nc2nc3ccccc3nc2Nc2ccc3nsnc3c2)cc1,> 30 µM (inactive)
3,CN1CC[C@@H](c2c(O)cc(O)c3c(=O)cc(-c4ccccc4Cl)oc23)[C@@H]1CO,> 30 µM (inactive)

# Target: Mitogen-activated protein kinase 3 (Homo sapiens, UniProt P27361)
# Sequence (P27361 whole entry): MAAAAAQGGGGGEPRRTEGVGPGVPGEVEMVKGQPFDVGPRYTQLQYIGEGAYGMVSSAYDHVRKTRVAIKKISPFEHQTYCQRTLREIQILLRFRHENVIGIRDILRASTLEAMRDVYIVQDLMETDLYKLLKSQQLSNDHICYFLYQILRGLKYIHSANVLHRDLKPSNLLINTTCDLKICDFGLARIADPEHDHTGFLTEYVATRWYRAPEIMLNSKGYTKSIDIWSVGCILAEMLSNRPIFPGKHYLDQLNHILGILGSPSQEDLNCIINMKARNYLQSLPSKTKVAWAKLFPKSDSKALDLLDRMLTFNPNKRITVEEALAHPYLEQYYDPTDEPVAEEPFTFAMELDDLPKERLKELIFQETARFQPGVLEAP
# Conditions: not given
row,SMILES,Kd
1,N[C@@H]1CCCN(c2c(/C=C3\SC(=O)NC3=O)cccc2-c2ccccc2)C1,> 30 µM (inactive)
2,Cc1ccc(S(=O)(=O)Nc2nc3ccccc3nc2Nc2ccc3nsnc3c2)cc1,> 30 µM (inactive)
3,CN1CC[C@@H](c2c(O)cc(O)c3c(=O)cc(-c4ccccc4Cl)oc23)[C@@H]1CO,> 30 µM (inactive)
